The numbers were not newly measured in patent US7593820B2, “Crystal structure of human Janus Kinase 2 (JAK2) and uses thereof” (Cytopia Research Pty Ltd, priority 2005, dated 2009), which cites them from elsewhere.

The test system of the data set is other PTKs that possess either a Thr or Val. Conditions: Thr or Val at gatekeeper position.

SMILES strings stand for the structures.

Turning to `CC(C)(C)c1nc2c3cc[nH]c(=O)c3c3cc(F)ccc3c2[nH]1` [Compound 6, 2-tert-Butyl-9-fluoro-3,6-dihydro-7H-benz[h]imidazo[4,5-f]isoquinolin-7-one], the “IC50 for other PTKs that possess either a Thr or Val” value is “uM range”.
